Data as given in patent US10377753B2, “Substituted 4-azaindoles and their use as GluN2B receptor modulators” (Janssen Pharmaceutica NV, priority 2015, dated 2019).

Target: cloned human NR1/NR2B ion channels (Homo sapiens (Human), UniProt Q05586+Q13224)
Assay: HNR2BC: effects of test articles on cloned human NR1/NR2B ion channels expressed in mammalian cells (FLIPR calcium flux)
Type: cell-based
Settings: cloned human NR1/NR2B ion channels, Table 5
Summary of the method: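 In a stable Tet-On-induced cell line expressing human GluN1/GluN2B, Calcium 5-loaded cells were preincubated 5 min with compound, then stimulated 5 min with glutamate at ~EC80 plus 10 μM glycine, in pH 7.4 HEPES buffer. FLIPR calcium fluorescence was normalized to control wells.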

Sequence of cloned human NR1/NR2B ion channels (Q13224 27-1484, other chains not shown): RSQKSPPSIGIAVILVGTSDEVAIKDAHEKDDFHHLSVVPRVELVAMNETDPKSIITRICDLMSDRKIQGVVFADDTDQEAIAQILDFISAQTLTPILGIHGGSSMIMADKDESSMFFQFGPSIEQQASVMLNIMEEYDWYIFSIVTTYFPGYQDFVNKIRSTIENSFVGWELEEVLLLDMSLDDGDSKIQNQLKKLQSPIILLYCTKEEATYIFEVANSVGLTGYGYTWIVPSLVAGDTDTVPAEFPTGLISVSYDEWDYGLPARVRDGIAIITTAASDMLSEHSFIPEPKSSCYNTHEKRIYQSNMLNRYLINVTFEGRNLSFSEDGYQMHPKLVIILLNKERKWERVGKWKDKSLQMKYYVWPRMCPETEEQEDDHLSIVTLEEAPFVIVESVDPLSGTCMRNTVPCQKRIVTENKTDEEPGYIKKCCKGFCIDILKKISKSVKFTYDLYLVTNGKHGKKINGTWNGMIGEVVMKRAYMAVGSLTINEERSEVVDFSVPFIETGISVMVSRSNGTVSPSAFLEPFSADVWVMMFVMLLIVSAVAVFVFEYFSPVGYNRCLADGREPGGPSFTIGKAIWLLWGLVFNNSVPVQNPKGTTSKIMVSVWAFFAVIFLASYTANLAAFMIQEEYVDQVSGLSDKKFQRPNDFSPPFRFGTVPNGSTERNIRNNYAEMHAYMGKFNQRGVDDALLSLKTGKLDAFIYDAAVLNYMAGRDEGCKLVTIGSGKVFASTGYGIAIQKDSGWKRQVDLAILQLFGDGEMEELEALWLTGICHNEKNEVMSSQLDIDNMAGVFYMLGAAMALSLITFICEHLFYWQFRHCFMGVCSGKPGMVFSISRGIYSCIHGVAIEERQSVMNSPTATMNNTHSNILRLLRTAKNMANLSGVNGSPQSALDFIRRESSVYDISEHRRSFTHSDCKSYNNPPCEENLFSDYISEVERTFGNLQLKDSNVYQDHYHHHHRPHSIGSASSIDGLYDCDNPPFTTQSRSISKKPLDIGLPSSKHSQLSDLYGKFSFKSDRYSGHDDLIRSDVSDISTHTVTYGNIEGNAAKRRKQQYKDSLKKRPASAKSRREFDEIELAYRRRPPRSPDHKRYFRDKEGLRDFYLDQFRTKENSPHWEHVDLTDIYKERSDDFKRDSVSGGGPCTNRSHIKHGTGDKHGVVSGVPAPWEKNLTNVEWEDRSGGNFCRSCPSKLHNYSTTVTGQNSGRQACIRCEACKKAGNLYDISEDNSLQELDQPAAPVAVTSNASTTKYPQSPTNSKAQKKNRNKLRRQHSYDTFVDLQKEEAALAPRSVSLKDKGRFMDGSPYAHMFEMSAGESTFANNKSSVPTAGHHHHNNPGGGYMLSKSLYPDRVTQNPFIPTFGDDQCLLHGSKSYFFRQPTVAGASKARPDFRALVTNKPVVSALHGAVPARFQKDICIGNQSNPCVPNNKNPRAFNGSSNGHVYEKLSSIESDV

IC50 [nM] | Structure (SMILES)
25.1 | Cc1c(F)ccc(-c2cnc3c(Cl)cn(CC(=O)N4CC(F)C4)c3c2)c1F [Example 539, 2-[3-Chloro-6-(2,4-difluoro-3-methyl-phenyl)pyrrolo[3,2-b]pyridin-1-yl]-1-(3-fluoroazetidin-1-yl)ethanone]
25.1 | O=C(Cn1cc(Cl)c2ncc(-c3ccc(F)c(Cl)c3)cc21)N1CC(F)C1 [Example 540, 2-[3-Chloro-6-(3-chloro-4-fluoro-phenyl)pyrrolo[3,2-b]pyridin-1-yl]-1-(3-fluoroazetidin-1-yl)ethanone]
39.8 | O=C(Cn1cc(Cl)c2ncc(-c3cccc(Cl)c3F)cc21)N1CC(F)C1 [Example 541, 2-[3-Chloro-6-(3-chloro-2-fluoro-phenyl)pyrrolo[3,2-b]pyridin-1-yl]-1-(3-fluoroazetidin-1-yl)ethanone]
31.6 | CCc1cccc(-c2cnc3c(Cl)cn(CC(=O)N4CC(F)C4)c3c2)c1 [Example 542, 2-[3-Chloro-6-(3-ethylphenyl)pyrrolo[3,2-b]pyridin-1-yl]-1-(3-fluoroazetidin-1-yl)ethanone]
20 | O=C(Cn1cc(Cl)c2ncc(-c3cccc(F)c3)cc21)N1CC(F)C1 [Example 543, 2-[3-Chloro-6-(3-fluorophenyl)pyrrolo[3,2-b]pyridin-1-yl]-1-(3-fluoroazetidin-1-yl)ethanone]
31.6 | CN(C)C(=O)Cn1cc(Cl)c2ncc(-c3cccc(Cl)c3F)cc21 [Example 544, 2-[3-Chloro-6-(3-chloro-2-fluoro-phenyl)pyrrolo[3,2-b]pyridin-1-yl]-N,N-dimethyl-acetamide]
12.6 | O=C(Cn1cc(Cl)c2ncc(-c3cccc(Cl)c3)cc21)N1CC(F)C1 [Example 545, 2-[3-Chloro-6-(3-chlorophenyl)pyrrolo[3,2-b]pyridin-1-yl]-1-(3-fluoroazetidin-1-yl)ethanone]
39.8 | O=C(Cn1cc(Cl)c2ncc(-c3cccc(C(F)F)c3)cc21)N1CC(F)C1 [Example 546, 2-[3-Chloro-6-[3-(difluoromethyl)phenyl]pyrrolo[3,2-b]pyridin-1-yl]-1-(3-fluoroazetidin-1-yl)ethanone]
398 | Cc1cccc(-c2cnc3c(F)c(C)n(CC(=O)N4CCC4)c3c2)c1 [Example 547, 1-(Azetidin-1-yl)-2-[3-fluoro-2-methyl-6-(m-tolyl)pyrrolo[3,2-b]pyridin-1-yl]ethanone]
79.4 | Cc1cn(CC(=O)N2CCC2)c2cc(-c3ccc(F)c(F)c3)cnc12 [Example 548, 1-(Azetidin-1-yl)-2-[6-(3,4-difluorophenyl)-3-methyl-pyrrolo[3,2-b]pyridin-1-yl]ethanone]
79.4 | Cc1cn(CC(=O)N(C)C)c2cc(-c3ccc(F)c(F)c3)cnc12 [Example 549, 2-[6-(3,4-Difluorophenyl)-3-methyl-pyrrolo[3,2-b]pyridin-1-yl]-N,N-dimethyl-acetamide]
126 | Cc1cccc(-c2cnc3c(C)cn(CC(=O)N4CC(F)C4)c3c2)c1 [Example 550, 1-(3-Fluoroazetidin-1-yl)-2-[3-methyl-6-(m-tolyl)pyrrolo[3,2-b]pyridin-1-yl]ethanone]
63.1 | Cc1cn(CC(=O)N2CC(F)C2)c2cc(-c3ccc(F)c(F)c3)cnc12 [Example 551, 2-[6-(3,4-Difluorophenyl)-3-methyl-pyrrolo[3,2-b]pyridin-1-yl]-1-(3-fluoroazetidin-1-yl)ethanone]
79.4 | Cc1cn(CC(=O)N2CCC2)c2cc(-c3cccc(C(F)(F)F)c3)cnc12 [Example 552, 1-(Azetidin-1-yl)-2-[3-methyl-6-[3-(trifluoromethyl)phenyl]pyrrolo[3,2-b]pyridin-1-yl]ethanone]
79.4 | Cc1cn(CC(=O)N(C)C)c2cc(-c3cccc(C(F)(F)F)c3)cnc12 [Example 553, N,N-Dimethyl-2-[3-methyl-6-[3-(trifluoromethyl)phenyl]pyrrolo[3,2-b]pyridin-1-yl]acetamide]
200 | Cc1cn(CC(=O)N2CC(F)C2)c2cc(-c3cccc(C(F)(F)F)c3)cnc12 [Example 554, 1-(3-Fluoroazetidin-1-yl)-2-[3-methyl-6-[3-(trifluoromethyl)phenyl]pyrrolo[3,2-b]pyridin-1-yl]ethanone]
63.1 | Cc1cn(CC(=O)N(C)C)c2cc(-c3cc(F)cc(F)c3)cnc12 [Example 555, 2-[6-(3,5-Difluorophenyl)-3-methyl-pyrrolo[3,2-b]pyridin-1-yl]-N,N-dimethyl-acetamide]
398 | Cc1cn(CC(=O)N2CCC2)c2cc(-c3cc(F)cc(F)c3)cnc12 [Example 556, 1-(Azetidin-1-yl)-2-[6-(3,5-difluorophenyl)-3-methyl-pyrrolo[3,2-b]pyridin-1-yl]ethanone]
126 | CCN(C)C(=O)Cn1cc(C)c2ncc(-c3cc(F)cc(F)c3)cc21 [Example 557, 2-[6-(3,5-Difluorophenyl)-3-methyl-pyrrolo[3,2-b]pyridin-1-yl]-N-ethyl-N-methyl-acetamide]
79.4 | Cc1cn(CC(=O)N(C)C)c2cc(-c3ccc(F)cc3)cnc12 [Example 558, 2-[6-(4-Fluorophenyl)-3-methyl-pyrrolo[3,2-b]pyridin-1-yl]-N,N-dimethyl-acetamide]
158 | CCN(C)C(=O)Cn1cc(C)c2ncc(-c3ccc(F)cc3)cc21 [Example 559, N-Ethyl-2-[6-(4-fluorophenyl)-3-methyl-pyrrolo[3,2-b]pyridin-1-yl]-N-methyl-acetamide]
794 | CCN(C)C(=O)Cn1cc(C)c2ncc(-c3cccc(C)c3F)cc21 [Example 560, N-Ethyl-2-[6-(2-fluoro-3-methyl-phenyl)-3-methyl-pyrrolo[3,2-b]pyridin-1-yl]-N-methyl-acetamide]
398 | Cc1cccc(-c2cnc3c(C)cn(CC(=O)N4CCC4)c3c2)c1F [Example 561, 1-(Azetidin-1-yl)-2-[6-(2-fluoro-3-methyl-phenyl)-3-methyl-pyrrolo[3,2-b]pyridin-1-yl]ethanone]
50.1 | Cc1cccc(-c2cnc3c(C)cn(CC(=O)N(C)C)c3c2)c1F [Example 562, 2-[6-(2-Fluoro-3-methyl-phenyl)-3-methyl-pyrrolo[3,2-b]pyridin-1-yl]-N,N-dimethyl-acetamide]
39.8 | Cc1cccc(-c2cnc3c(C)cn(CC(=O)N4CC(F)C4)c3c2)c1F [Example 563, 1-(3-Fluoroazetidin-1-yl)-2-[6-(2-fluoro-3-methyl-phenyl)-3-methyl-pyrrolo[3,2-b]pyridin-1-yl]ethanone]
100 | Cc1cccc(-c2cnc3c(C)cn(CC(=O)N4CC(F)(F)C4)c3c2)c1F [Example 564, 1-(3,3-Difluoroazetidin-1-yl)-2-[6-(2-fluoro-3-methyl-phenyl)-3-methyl-pyrrolo[3,2-b]pyridin-1-yl]ethanone]
126 | Cc1cccc(-c2cnc3c(C)cn(CC(=O)N4CCCC4)c3c2)c1F [Example 565, 2-[6-(2-Fluoro-3-methyl-phenyl)-3-methyl-pyrrolo[3,2-b]pyridin-1-yl]-1-pyrrolidin-1-yl-ethanone]
50.1 | Cc1cc(-c2cnc3c(C)cn(CC(=O)N(C)C)c3c2)ccc1F [Example 566, 2-[6-(4-Fluoro-3-methyl-phenyl)-3-methyl-pyrrolo[3,2-b]pyridin-1-yl]-N,N-dimethyl-acetamide]
